From the supplement of paper PMC11061612

How the values were obtained:
Assay in all cases: combination Emax (second highest fraction inhibited in the dose matrix, 72 h); higher = more inhibition; extreme values may be limits of the assay
[1] = system: KY821 (Acute Myeloid Leukemia)
Method in brief: (§1)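 Cell lines in DMEM/F12 or RPMI with 10% FBS were plated in 1536-well plates, held 24 hours at 37°C, 5% CO2, then given two-drug dose matrices for 72 hours (DMSO typically 0.2%). Viability was read by CellTiter-Glo 2.0 luminescence and scaled as inhibition from 0 (vehicle wells) to 1 (blank wells). Combination Emax is the second-highest inhibition in the matrix; Bliss excess is observed combination effect minus expected EA + EB − EA·EB, EA and EB being single-agent effects.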

[2] = system: NCI-H3122 (Lung Adenocarcinoma)
Method in brief: as §1

[3] = system: MN-60 (B-Lymphoblastic Leukemia)
Method in brief: as §1

[4] = system: SUP-B15 (B-Lymphoblastic Leukemia)
Method in brief: as §1

[5] = system: SNU-398 (Hepatocellular Carcinoma)
Method in brief: as §1

[6] = system: NCI-H929 (Plasma Cell Myeloma)
Method in brief: as §1

[7] = system: T-T (Esophageal Squamous Cell Carcinoma)
Method in brief: as §1

[8] = system: NCI-H526 (Small Cell Lung Carcinoma)
Method in brief: as §1

[9] = system: DAN-G (Pancreatic Carcinoma)
Method in brief: as §1

[10] = system: MOG-G-CCM (Low Grade Glioma)
Method in brief: as §1

[11] = system: KU812 (Chronic Myelogenous Leukemia)
Method in brief: as §1

[12] = system: PC-3 (Prostate Carcinoma)
Method in brief: as §1

RD (Rhabdomyosarcoma) = system: RD (Rhabdomyosarcoma)
Method in brief: as §1

[13] = system: NCI-H520 (Squamous Cell Lung Carcinoma)
Method in brief: as §1

[14] = system: NCCIT (Other Solid Carcinomas)
Method in brief: as §1

[15] = system: SU-DHL-5 (B-Cell Non-Hodgkin's Lymphoma)
Method in brief: as §1

G-361 (Melanoma) = system: G-361 (Melanoma)
Method in brief: as §1

[16] = system: COR-L279 (Small Cell Lung Carcinoma)
Method in brief: as §1

[17] = system: 8505C (Thyroid Gland Carcinoma)
Method in brief: as §1

[18] = system: CW-2 (Colorectal Carcinoma)
Method in brief: as §1

| SMILES | combination Emax [1] | combination Emax [2] | combination Emax [3] | combination Emax [4] | combination Emax [5] | combination Emax [6] | combination Emax [7] | combination Emax [8] | combination Emax [9] | combination Emax [10] | combination Emax [11] | combination Emax [12] | combination Emax (RD (Rhabdomyosarcoma)) | combination Emax [13] | combination Emax [14] | combination Emax [15] | combination Emax (G-361 (Melanoma)) | combination Emax [16] | combination Emax [17] | combination Emax [18] |
| --- | --- | --- | --- | --- | --- | --- | --- | --- | --- | --- | --- | --- | --- | --- | --- | --- | --- | --- | --- | --- |
| CCN(CCO)CCCOc1ccc2c(Nc3cc(CC(=O)Nc4cccc(F)c4)[nH]n3)ncnc2c1 [AZD2811] + O=C(c1cc(Cc2n[nH]c(=O)c3ccccc23)ccc1F)N1CCN(C(=O)C2CC2)CC1 [Olaparib] (first compound max 1 µM, 7x7, partner max 10 µM) | 0.455 | 0.271 | 0.301 | 0.976 | 0.365 | 0.292 | 0.212 | 0.642 | 0.218 | 0.285 | 0.678 | 0.179 | 0.19 | 0.345 | 0.226 | 1 | 0.34 | 0.945 | 0.212 | 0.162 |
| Cc1c2c(nn1C)CSCc1cc(n(C)n1)CSc1cc(c3ccccc3c1)OCCCc1c(C(=O)O)n(C)c3c-2c(Cl)ccc13 [AZD5991] + CN(C)CCCOc1ccc(-c2ccc3ncc4c(c3c2)n(C2CCOCC2)c(=O)n4C)cn1 [AZD0156] (first compound max 1 µM, 7x7, partner max 1 µM) | 1 | 0.405 | 0.177 | 1 | 1 | 1 | 0.901 | 0.378 | 0.48 | 0.249 | 0.828 | 0.282 | 0.603 | 0.509 | 0.641 | 1 | 0.956 | 0.496 | 0.609 | 0.154 |
| Cc1c2c(nn1C)CSCc1cc(n(C)n1)CSc1cc(c3ccccc3c1)OCCCc1c(C(=O)O)n(C)c3c-2c(Cl)ccc13 [AZD5991] + C[C@@H](Nc1cc(F)cc(F)c1)c1cc(C(=O)N(C)C)cc2c(=O)cc(N3CCOCC3)oc12 [AZD8186] (first compound max 1 µM, 7x7, partner max 3 µM) | 1 | 0.352 | 0.343 | 1 | 0.995 | 1 | 0.915 | 0.482 | 0.36 | 0.447 | 0.862 | 0.449 | 0.521 | 0.644 | 0.678 | 1 | 0.942 | 0.624 | 0.2 | 0.139 |
| CC1(C)CCC(CN2CCN(c3ccc(C(=O)NS(=O)(=O)c4ccc(NCC5CCOCC5)c([N+](=O)[O-])c4)c(Oc4cnc5[nH]ccc5c4)c3)CC2)=C(c2ccc(Cl)cc2)C1 [Venetoclax] + C1CN(CCC1(C(=O)N[C@@H](CCO)C2=CC=C(C=C2)Cl)N)C3=NC=NC4=C3C=CN4 [Capivasertib] (first compound max 1 µM, 7x7, partner max 3 µM) | 1 | 0.362 | 0.293 | 1 | 0.217 | 0.997 | 0.221 | 0.769 | 0.195 | 0.348 | 0.48 | 0.365 | 0.198 | 0.609 | 0.398 | 0.915 | 0.159 | 0.418 | 0.139 | 0.163 |
| CN(CCO)CC[C@H](CSc1ccccc1)Nc1ccc(S(=O)(=O)NC(=O)c2ccc(N3CCC([C@@H](O)c4ccccc4-c4ccc(Cl)cc4)CC3)cc2)cc1S(=O)(=O)C(F)(F)F [AZD4320] + C[C@@H](Nc1cc(F)cc(F)c1)c1cc(C(=O)N(C)C)cc2c(=O)cc(N3CCOCC3)oc12 [AZD8186] (first compound max 1 µM, 7x7, partner max 3 µM) | 1 | 0.365 | 0.226 | 1 | 0.273 | 0.792 | 0.305 | 0.973 | 0.344 | 0.728 | 0.705 | 0.437 | 0.887 | 0.688 | 0.329 | 0.99 | 0.332 | 1 | 0.502 | 0.149 |
| NC1(C(=O)N[C@@H](CCO)c2ccc(Cl)cc2)CCN(c2ncnc3[nH]ccc23)CC1 [Capivasertib] + COc1nnc2ccc(N3CCC(c4ccc(OCCN5CCN(C)C(=O)[C@H]5C)cc4)CC3)nn12 [AZD5153] (first compound max 10 µM, 7x7, partner max 1 µM) | 1 | 0.738 | 0.848 | 1 | 0.565 | 1 | 0.527 | 0.983 | 0.466 | 0.834 | 0.931 | 0.45 | 0.683 | 0.806 | 0.873 | 1 | 0.891 | 1 | 0.405 | 0.559 |
| CN(CCO)CC[C@H](CSc1ccccc1)Nc1ccc(S(=O)(=O)NC(=O)c2ccc(N3CCC([C@@H](O)c4ccccc4-c4ccc(Cl)cc4)CC3)cc2)cc1S(=O)(=O)C(F)(F)F [AZD4320] + CN(C)CCCOc1ccc(-c2ccc3ncc4c(c3c2)n(C2CCOCC2)c(=O)n4C)cn1 [AZD0156] (first compound max 1 µM, 7x7, partner max 1 µM) | 1 | 0.209 | 0.263 | 1 | 0.191 | 0.681 | 0.158 | 0.925 | 0.346 | 0.474 | 0.751 | 0.241 | 0.632 | 0.474 | 0.174 | 0.512 | 0.288 | 0.983 | 0.174 | 0.136 |
| Cc1cc2ncnn2cc1Nc1ncc2c(n1)n(C1CCOCC1)c(=O)n2C [AZD7648] + C[C@@H]1COCCN1C2=NC(=NC(=C2)C3(CC3)[S@](=N)(=O)C)C4=C5C=CNC5=NC=C4 [AZD6738] (first compound max 10 µM, 7x7, partner max 10 µM) | 0.92 | 0.751 | 0.427 | 0.848 | 0.46 | 0.846 | 0.531 | 0.637 | 0.643 | 0.577 | 0.769 | 0.402 | 0.246 | 0.771 | 0.641 | 1 | 0.45 | 0.677 | 0.361 | 0.461 |
| COc1cccc(OCCCN)c1-c1cc(Nc2cnc(C#N)cn2)n[nH]1 [Prexasertib] + CN(C)CCCOc1ccc(-c2ccc3ncc4c(c3c2)n(C2CCOCC2)c(=O)n4C)cn1 [AZD0156] (first compound max 1 µM, 7x7, partner max 1 µM) | 1 | 0.697 | 0.546 | 0.959 | 0.436 | 0.825 | 0.597 | 0.895 | 0.824 | 0.699 | 0.782 | 0.272 | 0.536 | 0.775 | 0.833 | 1 | 0.702 | 0.809 | 0.541 | 0.401 |
| COc1nnc2ccc(N3CCC(c4ccc(OCCN5CCN(C)C(=O)[C@H]5C)cc4)CC3)nn12 [AZD5153] + C=CCn1c(=O)c2cnc(Nc3ccc(N4CCN(C)CC4)cc3)nc2n1-c1cccc(C(C)(C)O)n1 [AZD1775] (first compound max 1 µM, partner max 1 µM) | 1 | 0.707 | 0.748 | 0.962 | 0.818 | 0.908 | 0.615 | 0.947 | 0.681 | 0.615 | 0.931 | 0.447 | 0.774 | 0.811 | 0.939 | 1 | 0.734 | 0.899 | 0.574 | 0.605 |
| CN(C)CCCOc1ccc(-c2ccc3ncc4c(c3c2)n(C2CCOCC2)c(=O)n4C)cn1 [AZD0156] + CCN(CCO)CCCOc1ccc2c(Nc3cc(CC(=O)Nc4cccc(F)c4)[nH]n3)ncnc2c1 [AZD2811] (first compound max 1 µM, 7x7, partner max 1 µM) | 0.559 | 0.446 | 0.207 | 0.896 | 0.339 | 0.815 | 0.0991 | 0.373 | 0.321 | 0.367 | 0.584 | 0.16 | 0.0353 | 0.458 | 0.17 | 0.931 | 0.256 | 0.776 | 0.102 | 0.123 |
| COc1cccc(OCCCN)c1-c1cc(Nc2cnc(C#N)cn2)n[nH]1 [Prexasertib] + CCc1c2c(nc3ccc(O)cc13)-c1cc3c(c(=O)n1C2)COC(=O)[C@]3(O)CC [SN-38] (first compound max 1 µM, 7x7, partner max 0.3 µM) | 1 | 0.933 | 0.825 | 1 | 0.725 | 0.865 | 0.971 | 1 | 0.933 | 0.894 | 0.794 | 0.703 | 0.958 | 0.867 | 0.85 | 1 | 0.727 | 1 | 0.854 | 0.612 |
| Cn1cnc2c(F)c(Nc3ccc(Br)cc3Cl)c(C(=O)NOCCO)cc21 [Selumetinib] + C[C@@H]1COCCN1C2=NC(=NC(=C2)C3(CC3)[S@](=N)(=O)C)C4=C5C=CNC5=NC=C4 [AZD6738] (first compound max 10 µM, 7x7, partner max 10 µM) | 0.944 | 0.734 | 0.56 | 0.986 | 0.742 | 0.882 | 0.292 | 0.427 | 0.675 | 0.502 | 0.969 | 0.39 | 0.522 | 0.406 | 0.649 | 1 | 0.848 | 0.626 | 0.515 | 0.501 |
